Earlier results in patent publication US20080286370A1, “Nanoscale Particles Used as Contrasting Agents in Magnetic Resonance Imaging” (priority 2005, published 2008).

What was measured:
[1] = copper or zinc
[2] = in vivo
[3] = human, in vivo

## O=C([O-])CN1CCN(CC(=O)[O-])CCN(CC(=O)O)CCN(CC(=O)[O-])CC1.[Gd+3] [Gd-DOTA, gadoteric acid]
[1]
  exchange of gadolinium with endogenic metal ions: less than 1%
[2]
  eliminated: 75%
  passage through the blood/brain barrier: do not pass through the blood/brain barrier
[3]
  adverse effect on vital parameters or renal function: absolutely no adverse effect
  patients who suffered from nausea: 8
  patients who suffered from vomiting: 5
  pseudohypocalcaemia: has not caused pseudohypocalcaemia
  side-effect rate: 0.84-0.97%
  systemic osmolality effects: negligible
  temperature, headaches, an unwell feeling, skin rash and an unpleasant taste in the mouth: less than 0.15%
  total rate of nausea and vomiting: 0.31%
